Values quoted from earlier work as cited in patent US12221461B2, “Saponin adjuvant and evaluation method thereof” (OBI PHARMA, INC., priority 2018, dated 2025).

Test system: antibody levels
Settings: previous study, Kensil et al., J. Immunol. 146, 431-437, 1991

| Substance | boost of antibody levels (adjuvant effect) |
| --- | --- |
| QS-17 | able to dramatically boost antibody levels |
| QS-18 | able to dramatically boost antibody levels |
| QS-21 | able to dramatically boost antibody levels |
